Values quoted from earlier work, collected in US20190187141A1, “Biomarkers for Detection and Treatment of Mast Cell Activity-Associated Disorders” (Arete Discoveries, Inc., priority 2016, published 2019).
Where a name gives a salt, the structure may show the parent alone.

What was measured:
[1] = test system: lymphocytes, macrophages, mast cells and dendritic cells
mast cells [2] = settings: in vitro
[3] = open label, 20 MS patients
[4] = phase II study
mast cells [5] = test system: mast cells
[6] = phase II trial, 35 progressive MS patients
cultured mast cells = settings: pannexin1 hemichannel dependent mechanism
mast cells [7] = settings: AD animal models; connexin 43 and pannexin1 hemichannel dependent

Cc1ccc(NC(=O)c2ccc(CN3CCN(C)CC3)cc2)cc1Nc1nccc(-c2cccnc2)n1 [Imatinib]
secretion of pro-inflammatory cytokines IFN-γ, TNF-α, IL-1β and IL-17 and MMPs [1]: inhibiting
anti-proliferative activity and immunomodulatory effects ([1]; lymphocytes, macrophages, mast cells and dendritic cells): exerts anti-proliferative activity and immunomodulatory effects

COC(=O)/C=C/C(=O)OC [dimethyl fumarate]
apoptosis of mast cells (mast cells [2]): induces apoptosis of mast cells in vitro

OCCOCCN1CCN(C(c2ccccc2)c2ccc(Cl)cc2)CC1 (centres unmarked) [hydroxyzine]
neurological outcome in MS patients [3]: stability or improvement neurologically
degranulation of mast cells within the thalamus (EAE; EAE): inhibit
progression and severity of EAE (EAE; in vivo): inhibit the progression and severity of EAE

Cc1ccc(NC(=O)c2ccc(CN3CCN(C)CC3)cc2)cc1Nc1nc(-c2cccnc2)cs1 [masitinib]
cognitive decline in AD patients [4]: some benefit in slowing cognitive decline
inhibition of survival, migration and activity of mast cells (mast cells [5]): effectively inhibits the survival, migration and activity of mast cells
efficacy in progressive MS [6]: some efficacy

Amyloid beta (Aβ) peptide 25-35 (GSNKGAIIGLM; Amyloid-beta protein 42; UniProt P05067 696-706, looked up, fragment) [amyloid beta peptide fragment 25-35]
degranulation of cultured mast cells (cultured mast cells): causes rapid degranulation of cultured mast cells
mast cell dye uptake and histamine release (mast cells [7]): promotes both connexin 43 and pannexinl hemichannel dependent mast cell dye uptake and histamine release
